# Data: paper PMC8238520, “Co-ordinated control of the Aurora B abscission checkpoint by PKCε complex assembly, midbody recruitment and retention” (Biochemical Journal, 2021)
# Tests used:
# Type in all cases: cell-based
# [1] = system: GFP-PKCε (WT) in HEK293T cells; experiment: Midbody recruitment of GFP-PKCε (WT), immunofluorescence; settings: cells undergoing cytokinesis, twenty cells with midbodies per condition across three experiments
# Method: (§1) Cells were grown on 13 mm glass coverslips and simultaneously fixed and permeabilized with PHEM-TX buffer (60 mM PIPES (pH 6.8), 25 mM HEPES (pH7.4), 10 mM EGTA (pH 8), 4 mM MgSO4, 4% paraformaldehyde and 0.1% Triton X-100) for 20 min. Cells were then incubated in blocking buffer (3% BSA in PBS) and probed using the following primary antibodies: rabbit Aurora B pS227 (in house, 1 : 100), mouse α-tubulin (in house, 1 : 1000). Primary antibodies were detected using Alexa Fluor-conjugated secondary antibodies (Life Technologies) and were all used diluted in blocking buffer: donkey anti-rabbit Alexa Fluor 647 and goat anti-mouse Alexa Fluor 555. […]
# (§2) Figure 2. […] (B) Quantitation of dividing cells with GFP-PKCε and GFP-PKCε-D532N accumulation at the midbody. […] (D) Quantitation of dividing cells with GFP-PKCε, GFP-PKCε-S346A-S368A, GFP-PKCε-D532N or GFP-PKCε-D532N-S346A-S368A accumulation at the midbody. […] (F) Quantitation of dividing cells with GFP-PKCε-D532N, GFP-PKCε-D532N-C183A, GFP-PKCε-D532N-C259A or GFP-PKCε-D532N-ΔC2 accumulation at the midbody. […] (G) Quantitation of multinucleate cells upon treatment with non-targeting siRNA (control) or PKCε siRNA, with expression of siRNA-resistant mouse GFP-PKCε, GFP-PKCε-D532N, GFP-PKCε-C183A, GFP-PKCε-C259A or GFP-PKCε-ΔC2. […] Two-hundred cells were counted per condition per experiment. […]
# [2] = system: GFP-PKCε-C183A in HEK293T cells; experiment: Midbody recruitment of GFP-PKCε-C183A (C1A mutant), immunofluorescence; settings: twenty cells with midbodies per condition across three experiments
# Method: as §1, §2
# [3] = system: GFP-PKCε-C259A in HEK293T cells; experiment: Midbody recruitment of GFP-PKCε-C259A (C1B mutant), immunofluorescence; settings: twenty cells with midbodies per condition across three experiments
# Method: as §1, §2
# [4] = system: GFP-PKCε-ΔC2 in HEK293T cells; experiment: Midbody recruitment of GFP-PKCε-ΔC2, immunofluorescence
# Method: as §1, with “555. All coverslips were mounted using ProLong Gold Diamond with DAPI (Invitrogen). All the static images were acquired using an inverted laser scanning confocal microscope (Carl Zeiss LSM 780) equipped with a 40× Plan-APOCHROMAT DIC oil-immersion objective. Image analysis was carried out using the ZEN analysis software. The variation in expression precluded midbody/cytoplasmic ratio determination as a valid approach to scoring localisation.” for “555.”
# (§3) I = I0 –I 1e-t/T1 –I 2e-t/T2 (see Methods), for GFP-PKC e M486A expressing HEK293T cells pretreated with NaPP1. Cells were bleached atthe plasma membrane (PM) or midbody(MB)and fluorescence recovery was monitored. […]
# [5] = system: GFP-PKCε-L223A-K224A-E227A in HEK293T cells; experiment: Midbody recruitment of GFP-PKCε-L223A-K224A-E227A (LKE > 3A), immunofluorescence; settings: twenty cells with midbodies per condition across three experiments
# Method: as §1, with “555. All coverslips were mounted using ProLong Gold Diamond with DAPI (Invitrogen). All the static images were acquired using an inverted laser scanning confocal microscope (Carl Zeiss LSM 780) equipped with a 40× Plan-APOCHROMAT DIC oil-immersion objective. Image analysis was carried out using the ZEN analysis software. The variation in expression precluded midbody/cytoplasmic ratio determination as a valid approach to scoring localisation.” for “555.”
# Figure 3. […] (C) Quantitation of dividing cells with GFP-PKCε, GFP-PKCε-D532N, GFP-PKCε-D532N-L223A-K224A-E227A, GFP-PKCε-D532N-T228A or GFP-PKCε-D532N-S234A accumulation at the midbody. […]
# [6] = system: GFP-PKCε M486A in HEK293T cells; experiment: Fluorescence recovery after photobleaching (FRAP); settings: NaPP1 (4 μM) for 10 min; 37°C
# Method: Live-cell fluorescence recovery after photobleaching (FRAP) experiments were performed using an inverted laser scanning confocal microscope (LSM 510, Carl Zeiss MicroImaging GmbH, Jena, Germany), with fully open pinhole, using a Plan-Apochromat oil-immersion objective (×63, NA 1.4). The microscope was encased inside an environmental polymethylmethacrylate case maintained at a constant temperature of 37°C, while the dishes containing the cells were maintained under a constant 5% CO2 flow. GFP-PKCε M486A cells were incubated with NaPP1 (4 μM) for 10 min. Each FRAP experiment comprised a sequence of 300 frames (128 × 128, pixel dwell time of 6.40 μs, pixel size 0.37 μm) including 10 pre-bleached frames. […] Recovery was monitored by capturing a further 290 scans after the photobleach event. Quantification was performed using the FRAP module included in the LSM software (Carl Zeiss) plotting the graphs to a best fit double exponential model I = I0 − I1e^−t/T^1 − I2e^−t/T^2 where I0 is the intensity before bleach, I1 and I2 are the mobile fractions and T1 and T2 the time constants. […]
# as §3
smiles,measurement,setting,value
"CCCCCCCCCC(=O)OC[C@H](CO)OC(=O)CCCCCCCCC [DiC10, sn-1,2-didecanoylglycerol]",midbody recruitment of WT PKCε on diC10,"[1]; 10 µM diC10, 3 min",recruited to the midbody region
same,cells displaying recruitment of C1A mutant to midbody on diC10,"[2]; 10 µM diC10, 3 min",0%
same,cells displaying recruitment of C1B mutant to midbody on diC10,"[3]; 10 µM diC10, 3 min",0%
same,midbody recruitment of PKCεΔC2 on diC10,"[4]; DiC10, data not shown",recruited
same,midbody recruitment of LKE > 3A mutant on diC10,"[5]; 10 µM diC10, 3 min",recruited to the midbody
CC(C)(C)n1nc(-c2cccc3ccccc23)c2c(N)ncnc21 [NaPP1],fast component of FRAP recovery at the midbody compared with the plasma membrane recruited protein,[6],considerably slower
"CCCCCCCCCCCCCC(=O)O[C@@H]1[C@@H](C)[C@@]2(O)[C@@H](C=C(CO)C[C@]3(O)C(=O)C(C)=C[C@@H]23)[C@@H]2C(C)(C)[C@]12OC(C)=O [PMA, phorbol myristate acetate]",midbody recruitment of WT PKCε on PMA,"[1]; 1 µM PMA, 20 min",recruited to the midbody region
same,midbody accumulation of C1A mutant (C183A) on PMA,"[2]; 1 µM PMA, 20 min",still promoted midbody accumulation
same,midbody recruitment of C1B mutant (C259A) on PMA,"[3]; 1 µM PMA, 20 min",not recruited
same,midbody recruitment of PKCεΔC2 on PMA,"[4]; PMA for 20 minutes, 20 cells per condition across 3 experiments",recruited
same,midbody recruitment of LKE > 3A mutant on PMA,"[5]; 1 µM PMA, 20 min",recruited to the midbody
